From PubChem BioAssay (NCI)
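Assay format: 96-well plates, 48-hour exposure. GI50 marks 50% less growth. TGI: total growth inhibition.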

How the values were obtained:
Assay in all cases: NCI-60 cell line screen, 48 h
ACHN renal = test system: ACHN renal
SF-268 CNS = test system: SF-268 CNS
RPMI-8226 leukemia = test system: RPMI-8226 leukemia
OVCAR-5 ovarian = test system: OVCAR-5 ovarian
CCRF-CEM leukemia = test system: CCRF-CEM leukemia
HCT-15 colon = test system: HCT-15 colon
SK-OV-3 ovarian = test system: SK-OV-3 ovarian
786-0 renal = test system: 786-0 renal
EKVX NSCLC = test system: EKVX NSCLC
HCC-2998 colon = test system: HCC-2998 colon
LOX IMVI melanoma = test system: LOX IMVI melanoma
M14 melanoma = test system: M14 melanoma
COLO 205 colon = test system: COLO 205 colon
MDA-MB-435 = test system: MDA-MB-435
SW-620 colon = test system: SW-620 colon
A498 renal = test system: A498 renal
SF-295 CNS = test system: SF-295 CNS
SK-MEL-5 melanoma = test system: SK-MEL-5 melanoma
NCI-H522 lung = test system: NCI-H522 lung
NCI-H23 lung = test system: NCI-H23 lung
K-562 leukemia = test system: K-562 leukemia
SF-539 CNS = test system: SF-539 CNS
DU-145 prostate = test system: DU-145 prostate
HOP-62 NSCLC = test system: HOP-62 NSCLC
HS 578T breast = test system: HS 578T breast
IGROV1 ovarian = test system: IGROV1 ovarian
NCI-H460 lung = test system: NCI-H460 lung
TK-10 renal = test system: TK-10 renal
RXF 393 renal = test system: RXF 393 renal
HT29 colon = test system: HT29 colon
CAKI-1 renal = test system: CAKI-1 renal
HCT-116 colon = test system: HCT-116 colon
SR leukemia = test system: SR leukemia
U251 CNS = test system: U251 CNS
HL-60(TB) leukemia = test system: HL-60(TB) leukemia
OVCAR-3 ovarian = test system: OVCAR-3 ovarian
UO-31 renal = test system: UO-31 renal
HOP-92 NSCLC = test system: HOP-92 NSCLC
A549 NSCLC = test system: A549 NSCLC
BT-549 breast = test system: BT-549 breast
NCI-H226 lung = test system: NCI-H226 lung
OVCAR-4 ovarian = test system: OVCAR-4 ovarian
MDA-MB-231 breast = test system: MDA-MB-231 breast
SK-MEL-28 melanoma = test system: SK-MEL-28 melanoma
NCI/ADR-RES ovarian = test system: NCI/ADR-RES ovarian
SK-MEL-2 melanoma = test system: SK-MEL-2 melanoma
SNB-75 CNS = test system: SNB-75 CNS
MALME-3M melanoma = test system: MALME-3M melanoma
SNB-19 CNS = test system: SNB-19 CNS
PC-3 prostate = test system: PC-3 prostate
KM12 colon = test system: KM12 colon
UACC-257 melanoma = test system: UACC-257 melanoma
T-47D breast = test system: T-47D breast
MOLT-4 leukemia = test system: MOLT-4 leukemia
OVCAR-8 ovarian = test system: OVCAR-8 ovarian

C=C1C(=O)O[C@H]2[C@H]1CC/C(COC(=O)NCc1ccccc1OC)=C\CC[C@@]1(C)O[C@@H]21
GI50 (ACHN renal): 1270 nM
TGI (ACHN renal): 2850 nM
GI50 (SF-268 CNS): 2200 nM
TGI (SF-268 CNS): 6740 nM
GI50 (RPMI-8226 leukemia): 1770 nM
TGI (RPMI-8226 leukemia): 6240 nM
GI50 (OVCAR-5 ovarian): 2290 nM
TGI (OVCAR-5 ovarian): 5440 nM
GI50 (CCRF-CEM leukemia): 482 nM
TGI (CCRF-CEM leukemia): 4700 nM
GI50 (HCT-15 colon): 1040 nM
TGI (HCT-15 colon): 2470 nM
GI50 (SK-OV-3 ovarian): 13500 nM
TGI (SK-OV-3 ovarian): 26800 nM
GI50 (786-0 renal): 1160 nM
TGI (786-0 renal): 2740 nM
GI50 (EKVX NSCLC): 1980 nM
TGI (EKVX NSCLC): 6390 nM
GI50 (HCC-2998 colon): 1820 nM
TGI (HCC-2998 colon): 3520 nM
GI50 (LOX IMVI melanoma): 1430 nM
TGI (LOX IMVI melanoma): 2960 nM
GI50 (M14 melanoma): 1100 nM
TGI (M14 melanoma): 2560 nM
GI50 (COLO 205 colon): 1750 nM
TGI (COLO 205 colon): 3720 nM
GI50 (MDA-MB-435): 1700 nM
TGI (MDA-MB-435): 4860 nM
GI50 (SW-620 colon): 768 nM
TGI (SW-620 colon): 3160 nM
GI50 (A498 renal): 3230 nM
TGI (A498 renal): 8530 nM
GI50 (SF-295 CNS): 5020 nM
TGI (SF-295 CNS): 18800 nM
GI50 (SK-MEL-5 melanoma): 2860 nM
TGI (SK-MEL-5 melanoma): 8030 nM
GI50 (NCI-H522 lung): 351 nM
TGI (NCI-H522 lung): 1920 nM
GI50 (NCI-H23 lung): 1740 nM
TGI (NCI-H23 lung): 4110 nM
GI50 (K-562 leukemia): 821 nM
TGI (K-562 leukemia): 6070 nM
GI50 (SF-539 CNS): 1530 nM
TGI (SF-539 CNS): 3040 nM
GI50 (DU-145 prostate): 698 nM
TGI (DU-145 prostate): 1980 nM
GI50 (HOP-62 NSCLC): 3690 nM
TGI (HOP-62 NSCLC): 14400 nM
GI50 (HS 578T breast): 3400 nM
TGI (HS 578T breast): 19000 nM
GI50 (IGROV1 ovarian): 1570 nM
TGI (IGROV1 ovarian): 4360 nM
GI50 (NCI-H460 lung): 3730 nM
TGI (NCI-H460 lung): 14600 nM
GI50 (TK-10 renal): 1790 nM
TGI (TK-10 renal): 3480 nM
GI50 (RXF 393 renal): 1040 nM
TGI (RXF 393 renal): 2570 nM
GI50 (HT29 colon): 1220 nM
TGI (HT29 colon): 3430 nM
GI50 (CAKI-1 renal): 1380 nM
TGI (CAKI-1 renal): 2770 nM
GI50 (HCT-116 colon): 548 nM
TGI (HCT-116 colon): 1860 nM
GI50 (SR leukemia): 679 nM
TGI (SR leukemia): 5190 nM
GI50 (U251 CNS): 2200 nM
TGI (U251 CNS): 6850 nM
GI50 (HL-60(TB) leukemia): 1610 nM
TGI (HL-60(TB) leukemia): 5770 nM
GI50 (OVCAR-3 ovarian): 872 nM
TGI (OVCAR-3 ovarian): 2420 nM
GI50 (UO-31 renal): 1680 nM
TGI (UO-31 renal): 3180 nM
GI50 (HOP-92 NSCLC): 1490 nM
TGI (HOP-92 NSCLC): 3720 nM
GI50 (A549 NSCLC): 3070 nM
TGI (A549 NSCLC): 11800 nM
GI50 (BT-549 breast): 1250 nM
TGI (BT-549 breast): 2550 nM
GI50 (NCI-H226 lung): 2110 nM
TGI (NCI-H226 lung): 4960 nM
GI50 (OVCAR-4 ovarian): 1780 nM
TGI (OVCAR-4 ovarian): 4920 nM
GI50 (MDA-MB-231 breast): 1470 nM
TGI (MDA-MB-231 breast): 3490 nM
GI50 (SK-MEL-28 melanoma): 1520 nM
TGI (SK-MEL-28 melanoma): 3610 nM
GI50 (NCI/ADR-RES ovarian): 2260 nM
TGI (NCI/ADR-RES ovarian): 6120 nM
GI50 (SK-MEL-2 melanoma): 1710 nM
TGI (SK-MEL-2 melanoma): 3890 nM
GI50 (SNB-75 CNS): 2440 nM
TGI (SNB-75 CNS): 13200 nM
GI50 (MALME-3M melanoma): 1890 nM
TGI (MALME-3M melanoma): 3980 nM
GI50 (SNB-19 CNS): 1570 nM
TGI (SNB-19 CNS): 3470 nM
GI50 (PC-3 prostate): 3130 nM
TGI (PC-3 prostate): 10600 nM
GI50 (KM12 colon): 3530 nM
TGI (KM12 colon): 13600 nM
GI50 (UACC-257 melanoma): 1480 nM
TGI (UACC-257 melanoma): 3510 nM
GI50 (T-47D breast): 2010 nM
TGI (T-47D breast): 5700 nM
GI50 (MOLT-4 leukemia): 2530 nM
TGI (MOLT-4 leukemia): 6130 nM
GI50 (OVCAR-8 ovarian): 2450 nM
TGI (OVCAR-8 ovarian): 8380 nM
